From the NIST ThermoML archive (doi:10.1021/je700428f)

Assay: xn = mol fraction of the nth substance listed
Conditions: 101 kPa, Liquid; for viscosity: Capillary tube (Ostwald / Ubbelohde) method

COC(C)(C)C [2-methoxy-2-methylpropane] + CCCCCCCCCC
Conditions	mass density [kg/m3]	viscosity [mPa·s]
308.15 K, x1 = 0.5005	719.62	–
308.15 K, x1 = 0.6066	720.2	–
308.15 K, x1 = 0.6866	720.81	–
308.15 K, x1 = 0.7973	721.85	–
308.15 K, x1 = 0.8999	723.26	–
308.15 K, x1 = 1	724.82	–
313.15 K, x1 = 0.1016	–	0.654
313.15 K, x1 = 0.1019	714.7	–
313.15 K, x1 = 0.2002	–	0.614
313.15 K, x1 = 0.2041	714.74	–
313.15 K, x1 = 0.3003	–	0.572
313.15 K, x1 = 0.3077	714.88	–
313.15 K, x1 = 0.3999	715.03	–
313.15 K, x1 = 0.4013	–	0.531
313.15 K, x1 = 0.4992	–	0.491
313.15 K, x1 = 0.5005	715.3	–
313.15 K, x1 = 0.6005	–	0.449
313.15 K, x1 = 0.6066	715.7	–
313.15 K, x1 = 0.6866	716.18	–
313.15 K, x1 = 0.7	–	0.404
313.15 K, x1 = 0.7973	717	–
313.15 K, x1 = 0.8005	–	0.362
313.15 K, x1 = 0.8999	718.16	–
313.15 K, x1 = 1	719.42	–
318.15 K, x1 = 0.1016	–	0.614
318.15 K, x1 = 0.1019	710.81	–
318.15 K, x1 = 0.2002	–	0.579
318.15 K, x1 = 0.2041	710.74	–
318.15 K, x1 = 0.3003	–	0.54
318.15 K, x1 = 0.3077	710.78	–
318.15 K, x1 = 0.3999	710.82	–
318.15 K, x1 = 0.4013	–	0.503
318.15 K, x1 = 0.4992	–	0.462
318.15 K, x1 = 0.5005	710.97	–
318.15 K, x1 = 0.6005	–	0.426
318.15 K, x1 = 0.6066	711.2	–
318.15 K, x1 = 0.6866	711.53	–
318.15 K, x1 = 0.7	–	0.383
318.15 K, x1 = 0.7973	712.1	–
318.15 K, x1 = 0.8999	713.01	–
318.15 K, x1 = 1	713.96	–
323.15 K, x1 = 0.1016	–	0.577
323.15 K, x1 = 0.1019	706.89	–
323.15 K, x1 = 0.2002	–	0.546
323.15 K, x1 = 0.2041	706.73	–
323.15 K, x1 = 0.3003	–	0.51
323.15 K, x1 = 0.3077	706.65	–
323.15 K, x1 = 0.3999	706.59	–
323.15 K, x1 = 0.4013	–	0.476
323.15 K, x1 = 0.4992	–	0.441
323.15 K, x1 = 0.5005	706.6	–
323.15 K, x1 = 0.6005	–	0.406
323.15 K, x1 = 0.6066	706.67	–
323.15 K, x1 = 0.6866	706.84	–
323.15 K, x1 = 0.7	–	0.365
323.15 K, x1 = 0.7973	707.18	–
323.15 K, x1 = 0.8999	707.81	–
328.15 K, x1 = 0.1016	–	0.546
328.15 K, x1 = 0.1019	702.96	–
328.15 K, x1 = 0.2002	–	0.517
328.15 K, x1 = 0.2041	702.7	–
328.15 K, x1 = 0.3003	–	0.483
328.15 K, x1 = 0.3077	702.51	–
328.15 K, x1 = 0.3999	702.33	–
328.15 K, x1 = 0.4013	–	0.451
328.15 K, x1 = 0.4992	–	0.418
328.15 K, x1 = 0.5005	702.22	–
328.15 K, x1 = 0.6005	–	0.386
328.15 K, x1 = 0.6066	702.11	–
328.15 K, x1 = 0.6866	702.11	–
328.15 K, x1 = 0.7	–	0.35
328.15 K, x1 = 0.7973	702.19	–
328.15 K, x1 = 0.8999	702.55	–
333.15 K, x1 = 0.1016	–	0.514
333.15 K, x1 = 0.1019	699	–
333.15 K, x1 = 0.2002	–	0.489
333.15 K, x1 = 0.2041	698.64	–
333.15 K, x1 = 0.3003	–	0.459
333.15 K, x1 = 0.3077	698.34	–
333.15 K, x1 = 0.3999	698.05	–
333.15 K, x1 = 0.4013	–	0.432
333.15 K, x1 = 0.4992	–	0.399
333.15 K, x1 = 0.5005	697.78	–
333.15 K, x1 = 0.6005	–	0.371
333.15 K, x1 = 0.6066	697.5	–
333.15 K, x1 = 0.6866	697.32	–
333.15 K, x1 = 0.7973	697.15	–
338.15 K, x1 = 0.1016	–	0.489
338.15 K, x1 = 0.1019	695.02	–
338.15 K, x1 = 0.2002	–	0.466
338.15 K, x1 = 0.2041	694.56	–
338.15 K, x1 = 0.3003	–	0.438
338.15 K, x1 = 0.3077	694.14	–
338.15 K, x1 = 0.3999	693.73	–
338.15 K, x1 = 0.4013	–	0.413
338.15 K, x1 = 0.4992	–	0.382
338.15 K, x1 = 0.5005	693.31	–
338.15 K, x1 = 0.6005	–	0.359
338.15 K, x1 = 0.6066	692.86	–
338.15 K, x1 = 0.6866	692.58	–
338.15 K, x1 = 0.7973	692.06	–
343.15 K, x1 = 0.1016	–	0.466
343.15 K, x1 = 0.1019	691.02	–
343.15 K, x1 = 0.2002	–	0.445
343.15 K, x1 = 0.2041	690.46	–
343.15 K, x1 = 0.3003	–	0.42
343.15 K, x1 = 0.3077	689.92	–
343.15 K, x1 = 0.3999	689.38	–
343.15 K, x1 = 0.4013	–	0.398
343.15 K, x1 = 0.4992	–	0.369
343.15 K, x1 = 0.5005	688.8	–
343.15 K, x1 = 0.6066	688.18	–
343.15 K, x1 = 0.6866	687.71	–
343.15 K, x1 = 0.7973	686.92	–
348.15 K, x1 = 0.1016	–	0.443
348.15 K, x1 = 0.1019	687.01	–
348.15 K, x1 = 0.2002	–	0.424
348.15 K, x1 = 0.2041	686.34	–
348.15 K, x1 = 0.3003	–	0.402
348.15 K, x1 = 0.3077	685.67	–
348.15 K, x1 = 0.3999	685.01	–
348.15 K, x1 = 0.4013	–	0.383
348.15 K, x1 = 0.5005	684.26	–
348.15 K, x1 = 0.6066	683.43	–
353.15 K, x1 = 0.1016	–	0.422
353.15 K, x1 = 0.1019	682.96	–
353.15 K, x1 = 0.2002	–	0.406
353.15 K, x1 = 0.2041	682.18	–
353.15 K, x1 = 0.3003	–	0.386
353.15 K, x1 = 0.3077	681.38	–
353.15 K, x1 = 0.3999	680.59	–
353.15 K, x1 = 0.4013	–	0.372
353.15 K, x1 = 0.5005	679.69	–
353.15 K, x1 = 0.6066	678.65	–
358.15 K, x1 = 0.1016	–	0.407
358.15 K, x1 = 0.1019	678.89	–
358.15 K, x1 = 0.2002	–	0.388
358.15 K, x1 = 0.2041	678	–
358.15 K, x1 = 0.3003	–	0.372
358.15 K, x1 = 0.3077	677.06	–
358.15 K, x1 = 0.3999	676.14	–
363.15 K, x1 = 0.1019	674.79	–
363.15 K, x1 = 0.2041	673.78	–
363.15 K, x1 = 0.3077	672.71	–
363.15 K, x1 = 0.3999	671.66	–
